The MIC is the lowest concentration that inhibits growth of the organism. The IC50 is the concentration needed to halve the response being measured.

Values after ≈ are worked out from the molar mass of the structure shown. Where two headings read alike, the source gives them in different places.

The subject of one data set is rat erythrocytes. Put plainly: hemolytic power on rat erythrocytes. The class given is cell-based. The conditions noted are these: for hemolytic activity, times less than unreacted partricins: relative to unreacted partricins; for EC (concentration that causes hemoglobin liberation of 50% of the total amount): rat erythrocytes, 2% suspension in BSA Ringer, 1 hour at 36, average of 2-5 experiments. How it is done: A further important evaluation parameter was the helomytic power: rat erytrocytes were suspended at a 2% concentration in Ringer solution containing 0.2% of bovine serum albumin, fraction V (BSA) and incubated for 1 hour at 36° C. in the presence of various amounts of the amides being investigated.

Another data set relates to Candida albicans. Kind of data set: antimycotic activity, minimum inhibitory concentration (MIC) on Candida albicans, liquid and solid medium. The conditions noted are these: candida albicans n. 37, 24 hours, average of 2-5 experiments. The class given is cell-based. How it is done: (b) Sabouraud fluid medium, 24 hours at
(c) Sabouraud fluid medium + agar, 24 hours at […]

The test system of a further data set is Saccharomyces cerevisiae. Put plainly: growth inhibition of Saccharomyces cerevisiae culture (turbidimetric). The class given is cell-based. Conditions: S. cerevisiae n. 167; PYG culture medium, 6 hours at 36; average of 2-5 experiments.
In another data set the test system is Trichomonas vaginalis. Put plainly: antiprotozoal activity, MIC on Trichomonas vaginalis. The class given is cell-based. The conditions noted are these: T. vaginalis n. 6; CPLM culture medium, 72 hours; average of 2-5 experiments.
The conditions of data set [1]: background statement, in words; cited from earlier work.
The conditions of data set [2]: background statement, in words; cited from earlier work. This is another data set of the same source.
Data set [3] concerns yeasts, such as Candida albicans. Conditions: background statement, in words; cited from earlier work.
The nature of another data set: water solubility and pH. The class given is physicochemical.
The mark [4] stands for this setting: Sabouraud fluid medium + agar (solid).

For the compound 2-dimethylaminoethyl amide, the “hemolytic activity, times less than unreacted partricins” value (“hemolytic activity” for short) in the data set on rat erythrocytes is 25-80 times less.

In the case of 3-dimethylaminopropyl amide, in the data set on rat erythrocytes, the “hemolytic activity” value is reported as 25-80 times less.

Consider `CC1/C=C/C=C/C=C/C=C/C=C/C=C/C=C/C(O[C@H]2O[C@@H](C)[C@H](O)[C@@H](N)[C@H]2O)CC2OC(O)(CC(O)CC(O)CC(O)CC(O)CC(=O)CC(O)CC(=O)OC1C(C)CCC(O)CC(=O)c1ccc(N)cc1)CC(O)C2C(=O)O` (stereo partly drawn) [Partricin B (P.B), reference compound], for which the values for the MIC in the data set on Candida albicans (setting [4]), in the data set on Candida albicans (Sabouraud fluid medium) and in the data set on Trichomonas vaginalis were 40 ng/mL, 40 ng/mL (≈ 0.0359 µM) and 250 ng/mL (≈ 0.225 µM), respectively. In the data set with Saccharomyces cerevisiae, this compound gave an IC50 of 5 ng/mL (≈ 0.00449 µM).

On to `COC(=O)C1C(O)CC2(O)CC(O)CC(O)C(O)CCC(O)CC(O)CC(=O)OC(C)C(C)C(O)C(C)C=CC=CC=CC=CC=CC=CC=CC(OC3OC(C)C(O)C(N)C3O)CC1O2` (stereo not drawn) [amphotericin B methyl ester], for which the toxicity entry in data set [1] was “severe neurotoxic effects”.

For the compound “Partricin 3-dimethylaminopropyl amide [P. 3-dimethyl-aminopropyl amide]”, the values for the MIC in the data set with Candida albicans (setting [4]), against Candida albicans (Sabouraud fluid medium) and against Trichomonas vaginalis were 16 ng/mL, 10 ng/mL and 500 ng/mL, respectively. In the data set on Saccharomyces cerevisiae, this compound gave an IC50 of 1 ng/mL. The “EC (concentration that causes hemoglobin liberation of 50% of the total amount)” value in the data set on rat erythrocytes came out at 17 µg/mL.

Regarding “Partricin A 3-dimethylaminopropyl amide [P.A 3-dimethyl-aminopropyl amide]”, the figures for the MIC in the data set with Candida albicans (setting [4]), in the data set on Candida albicans (Sabouraud fluid medium) and against Trichomonas vaginalis were 8 ng/mL, 3 ng/mL and 500 ng/mL, respectively. In the data set on Saccharomyces cerevisiae, this compound gave an IC50 of 0.5 ng/mL. Also, the “EC (concentration that causes hemoglobin liberation of 50% of the total amount)” value with rat erythrocytes was found to be 20 µg/mL.

As for “Partricin A N'-methyl-piperazide [P.A N'-methyl-piperazide]”, the MIC with Candida albicans (setting [4]) was determined as 4 ng/mL; with Candida albicans (Sabouraud fluid medium), 1 ng/mL; in the data set with Trichomonas vaginalis it was 500 ng/mL. Moreover, the IC50 in the data set with Saccharomyces cerevisiae came out at 0.4 ng/mL.

As for “Partricin A allyl amide [P.A allyl amide]”, the MIC came out at 10 ng/mL with Candida albicans (setting [4]), 6 ng/mL in the data set on Candida albicans (Sabouraud fluid medium) and 250 ng/mL in the data set with Trichomonas vaginalis. Also, in the data set on Saccharomyces cerevisiae, the IC50 was determined as 0.8 ng/mL.

For “Partricin A ethyl amide [P.A ethyl amide]”, the MIC in the data set on Candida albicans (setting [4]) worked out at 10 ng/mL; against Candida albicans (Sabouraud fluid medium), 9 ng/mL; with Trichomonas vaginalis, 500 ng/mL. The compound further returned an IC50 in the data set with Saccharomyces cerevisiae of 1 ng/mL.

Regarding “Partricin A n-pentyl amide [P.A n-penthyl amide]”, the values for the MIC in the data set on Candida albicans (setting [4]), in the data set with Candida albicans (Sabouraud fluid medium) and against Trichomonas vaginalis were 80 ng/mL, 20 ng/mL and 2000 ng/mL, respectively. Moreover, the IC50 in the data set with Saccharomyces cerevisiae amounted to 3 ng/mL.

As for “Partricin A n-propyl amide [P.A n-propyl amide]”, the MIC in the data set on Candida albicans (setting [4]) came out at 16 ng/mL; against Candida albicans (Sabouraud fluid medium), 8 ng/mL; in the data set on Trichomonas vaginalis, 500 ng/mL. Further, the IC50 with Saccharomyces cerevisiae was found to be 1 ng/mL.

As for “Partricin B 2-dimethylaminoethyl amide [P.B 2-dimethyl-aminoethyl-amide]”, the results for the MIC with Candida albicans (setting [4]), against Candida albicans (Sabouraud fluid medium) and in the data set on Trichomonas vaginalis were 10 ng/mL, 3 ng/mL and 500 ng/mL, respectively. Besides, the IC50 in the data set with Saccharomyces cerevisiae turned out to be 1 ng/mL.

In the case of “Partricin B methyl amide [P.B methyl amide]”, the figures for the MIC in the data set on Candida albicans (setting [4]), in the data set on Candida albicans (Sabouraud fluid medium) and against Trichomonas vaginalis were 8 ng/mL, 7 ng/mL and 250 ng/mL, respectively. In the data set on Saccharomyces cerevisiae, this compound returned an IC50 of 1 ng/mL.

Consider Partricin methyl amide [P. methy amide], for which the results for the MIC with Candida albicans (setting [4]), with Candida albicans (Sabouraud fluid medium) and against Trichomonas vaginalis were 7 ng/mL, 5 ng/mL and 250 ng/mL, respectively. In addition, the IC50 in the data set on Saccharomyces cerevisiae was 1 ng/mL. The “EC (concentration that causes hemoglobin liberation of 50% of the total amount)” value in the data set with rat erythrocytes turned out to be 7.5 µg/mL.

With “Partricin n-dodecyl amide [P. n-dodecyl amide]”, the figures for the MIC with Candida albicans (setting [4]), in the data set on Candida albicans (Sabouraud fluid medium) and with Trichomonas vaginalis were 800 ng/mL, 450 ng/mL and over 10000 ng/mL, respectively. In addition, the IC50 with Saccharomyces cerevisiae is 50 ng/mL. For the same compound, the “EC (concentration that causes hemoglobin liberation of 50% of the total amount)” value in the data set with rat erythrocytes was over 32 µg/mL.

Consider mepartricin, for which the water solubility result in data set [2] is reported as “insufficient water solubility”. Further, the antimycotic activity result in data set [3] was “increased antimycotic activity”. For the same compound, in data set [1], the action selectivity entry is “greater action selectivity” and the toxicity result is “reduced toxicity, but still exhibits marked toxic effects”.

Take methyl amide: in the data set on rat erythrocytes, the “hemolytic activity” value was 25-80 times less.

Turning to “partricin A 2-dimethylaminoethyl amide diaspartate”, in the data set “water solubility and pH” (in words), the water solubility result is listed as “water-soluble”. Also, in the data set “water solubility and pH” (slightly acidic reaction), the “pH (reaction of the salt)” value is about 5.

Turning to “partricin A 2-dimethylaminoethylamide [P.A 2-dimethyl-aminoethyl amide]”, the MIC in the data set on Candida albicans (setting [4]) is 8 ng/mL; against Candida albicans (Sabouraud fluid medium), 2 ng/mL; against Trichomonas vaginalis, 500 ng/mL. Besides, the IC50 with Saccharomyces cerevisiae was determined as 0.4 ng/mL. Moreover, the “EC (concentration that causes hemoglobin liberation of 50% of the total amount)” value in the data set on rat erythrocytes turned out to be 25 µg/mL.

With “partricin A methyl amide [P.A methyl amide]”, the MIC with Candida albicans (setting [4]) was found to be 8 ng/mL; with Candida albicans (Sabouraud fluid medium), 5 ng/mL; with Trichomonas vaginalis, 250 ng/mL. The compound further came in with an IC50 in the data set on Saccharomyces cerevisiae of 0.7 ng/mL. For the same compound, the “EC (concentration that causes hemoglobin liberation of 50% of the total amount)” value in the data set with rat erythrocytes was 8 µg/mL.

The values above are taken from patent publication US5296597A, “Amide derivatives of Partricin A & Partricin B” (SPA Societa' Prodotti Antibiotici S.P.A., priority 1989, dated 1994).
